# In patent US20220089575A1, “FARNESOID X RECEPTOR AGONISTS AND USES THEREOF” (Metacrine, Inc., priority 2017, published 2022):
# Biological target: T1, hFXR (Homo sapiens, UniProt Q96RI1)
# T1 construct: expressed in transfected cells; host or cells: CV-1 cells
# T1 sequence (Q96RI1 1-486): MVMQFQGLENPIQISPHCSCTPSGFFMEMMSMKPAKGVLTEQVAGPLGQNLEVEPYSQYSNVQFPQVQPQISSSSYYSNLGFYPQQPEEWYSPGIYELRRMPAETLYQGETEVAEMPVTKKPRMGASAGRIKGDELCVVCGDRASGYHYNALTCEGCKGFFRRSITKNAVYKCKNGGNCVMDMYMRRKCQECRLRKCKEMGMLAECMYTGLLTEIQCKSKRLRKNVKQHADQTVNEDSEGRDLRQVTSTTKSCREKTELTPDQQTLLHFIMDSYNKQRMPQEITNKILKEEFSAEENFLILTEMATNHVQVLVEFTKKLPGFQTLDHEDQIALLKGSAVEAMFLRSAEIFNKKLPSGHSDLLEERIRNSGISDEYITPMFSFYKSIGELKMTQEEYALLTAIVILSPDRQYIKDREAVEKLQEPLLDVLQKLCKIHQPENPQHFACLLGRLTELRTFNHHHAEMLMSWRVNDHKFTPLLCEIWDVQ
# T1 sequence (P19793 1-462 partner): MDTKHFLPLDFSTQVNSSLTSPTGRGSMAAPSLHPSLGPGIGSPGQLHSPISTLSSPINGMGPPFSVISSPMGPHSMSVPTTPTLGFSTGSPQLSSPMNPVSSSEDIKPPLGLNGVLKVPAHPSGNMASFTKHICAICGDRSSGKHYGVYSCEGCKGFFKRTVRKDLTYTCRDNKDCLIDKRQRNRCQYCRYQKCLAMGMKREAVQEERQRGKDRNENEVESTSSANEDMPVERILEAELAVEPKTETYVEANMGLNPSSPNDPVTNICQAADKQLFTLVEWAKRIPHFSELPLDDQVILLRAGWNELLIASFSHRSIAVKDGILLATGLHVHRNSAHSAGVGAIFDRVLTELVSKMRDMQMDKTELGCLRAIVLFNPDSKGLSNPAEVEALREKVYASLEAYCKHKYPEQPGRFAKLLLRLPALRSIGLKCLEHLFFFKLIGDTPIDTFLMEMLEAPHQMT
# Test: In Vitro FXR Assay (TK): TK-ECRE-luc reporter in transfected CV-1 cells
# Assay type: cell-based
# Details: 18 hrs, luminescence, maximum efficacy of <25% of the Fexarmine control classified as '+'
# Protocol: CV-1 cells were seeded at a density of 2,000,000 cells in a T175 flask with DMEM+10% charcoal double-stripped FBS and incubated at 37° C. in 5% CO2 for 18 h (O/N).
# After 18 h of incubation, the medium in the T175 flask was changed with fresh DMEM+10% charcoal super-stripped serum. In a polypropylene tube, 2500 μL OptiMEM (Life Technologies, Cat #31985-062) was combined with expression plasmids for hFXR, hRXR, TK-ECRE-luc and pCMX-YFP. The tube was then briefly vortexed and incubated at room temperature for 5 minutes. Transfection reagent (X-tremeGENE HP from Roche, Cat #06 366 236 001) was added to the OptiMEM/plasmid mixture vortexed and incubated at room temperature for 20 minutes. Following incubation, the transfection reagent/DNA mixture complex was added to cells in the T175 flask and the cells were incubated at 37° C. in 5% CO2 for 18 h (O/N).
# Compounds were serially diluted in DMSO and added to transfected CV-1 cells. The cells were then incubated for 18 hrs. The next day cells were lysed and examined for luminescence.
row,EC50 [nM],SMILES
1,≤ 250,"COc1ccc([C@H]2CC[C@H](CN(c3cc(-c4coc(C(C)C)n4)ccn3)C(=O)[C@H]3CC[C@H](OC(=O)N4CCOCC4)CC3)CC2)nc1C [Compound 6, trans-4-((4-(2-Isopropyloxazol-4-yl)pyridine-2-yl)((trans-4-(5-methoxy-6-methylpyridin-2-yl)cyclohexyl)methyl)carbamoyl)cyclohexyl morpholine-4-carboxylate]"
2,≤ 250,"COC(=O)NC[C@H]1CC[C@H](C(=O)N(C[C@H]2CC[C@H](c3ccc(OC)c(C)c3)CC2)c2cccc(-c3cnc(OC)s3)c2)CC1 [Compound 25.07, Methyl ((trans-4-(((trans-4-(4-methoxy-3-methylphenyl)cyclohexyl)methyl)(3-(2-methoxythiazol-5-yl)phenyl)carbamoyl)cyclohexyl)methyl)carbamate]"
3,≤ 250,"COc1ccc([C@H]2CC[C@H](CN(c3cc(-c4cnn(C5CC5)c4)ccn3)C(=O)[C@H]3CC[C@H](OC(=O)NCCO)CC3)CC2)cc1C [Compound 4.19, trans-4-((4-(1-Cyclopropyl-1H-pyrazol-4-yl)pyridin-2-yl)((trans-4-(4-methoxy-3-methylphenyl)cyclohexyl)methyl)carbamoyl)cyclohexyl (2-hydroxyethyl)carbamate]"
4,≤ 250,"COc1ccc([C@H]2CC[C@H](CN(c3cccc(-c4cnn(C5CC5)c4)c3)C(=O)[C@H]3CC[C@H](c4nnn[nH]4)CC3)CC2)cc1C [Compound 33.01, trans-N-(3-(1-Cyclopropyl-1H-pyrazol-4-yl)phenyl)-N-((trans-4-(4-methoxy-3-methylphenyl)cyclohexyl)methyl)-4-(2H-tetrazol-5-yl) cyclohexanecarboxamide]"
5,≤ 250,"COc1ccc([C@H]2CC[C@H](CN(c3cccc(-c4cnn(C5CC5)c4)c3)C(=O)[C@H]3CC[C@H](OC(=O)N4CC(CO)C4)CC3)CC2)cc1C [Compound 7.28, trans-4-((3-(1-Cyclopropyl-1H-pyrazol-4-yl)phenyl)((trans-4-(4-methoxy-3-methylphenyl)cyclohexyl)methyl)carbamoyl)cyclohexyl 3-(hydroxymethyl)azetidine-1-carboxylate]"
6,≤ 250,"COc1ccc([C@H]2CC[C@H](CN(c3cc(-c4coc(C5CC5)n4)ccn3)C(=O)[C@H]3CC[C@H](OC(=O)N4CC(C(C)(C)O)C4)CC3)CC2)nc1C [Compound 7.99, trans-4-((4-(2-Cyclopropyloxazol-4-yl)pyridine-2-yl)((trans-4-(5-methoxy-6-methylpyridin-2-yl)cyclohexyl)methyl)carbamoyl)cyclohexyl 3-(2-hydroxypropan-2-yl)azetidine-1-carboxylate]"
7,≤ 250,"COc1ccc([C@H]2CC[C@H](CN(c3cccc(-c4cnc(C5CC5)s4)c3)C(=O)[C@H]3CC[C@H](CC(=O)O)CC3)CC2)cc1C [Compound 19, 2-(trans-4-((3-(2-Cyclopropylthiazol-5-yl)phenyl)((trans-4-(4-methoxy-3-methylphenyl)cyclohexyl)methyl)carbamoyl)cyclohexyl)acetic acid]"
8,≤ 250,"CN(C)c1ccc(C23CCC(CN(c4cccc(-c5coc(C6CC6)n5)c4)C(=O)[C@H]4CC[C@H](OC(=O)NCCO)CC4)(CC2)CC3)cn1 [Compound 4.23, 4-((3-(2-Cyclopropyloxazol-4-yl)phenyl)((4-(6-(dimethylamino)pyridin-3-yl)bicyclo[2.2.2]octan-1-yl)methyl)carbamoyl)cyclohexyl trans-(2-hydroxyethyl)carbamate]"
9,≤ 250,"COc1ccc([C@H]2CC[C@H](CN(c3cccc(-c4cnc(C5CC5)s4)c3)C(=O)[C@H]3CC[C@H](CO)CC3)CC2)cc1C [Compound 15.02, trans-N-(3-(2-Cyclopropylthiazol-5-yl)phenyl)-4-(hydroxymethyl)-N-((trans-4-(4-methoxy-3-methylphenyl)cyclohexyl)methyl) cyclohexanecarboxamide]"
10,≤ 250,"COc1ccc([C@H]2CC[C@H](CN(c3cccc(-c4cnc(C5CC5)s4)c3)C(=O)[C@H]3CC[C@H](NS(C)(=O)=O)CC3)CC2)cc1C [Compound 25.11, trans-N-(3-(2-Cyclopropylthiazol-5-yl)phenyl)-N-((trans-4-(4-methoxy-3-methylphenyl)cyclohexyl)methyl)-4-(methylsulfonamido) cyclohexanecarboxamide]"
11,≤ 250,"COc1ccc([C@H]2CC[C@H](CN(c3cccc(-c4cnn(C5CC5)c4)c3)C(=O)[C@H]3CC[C@H](OC(=O)[C@H]4CC[C@H](O)CC4)CC3)CC2)cc1C [Compound 10, trans-4-((3-(1-Cyclopropyl-1H-pyrazol-4-yl)phenyl)((trans-4-(4-methoxy-3-methylphenyl)cyclohexyl)methyl)carbamoyl)cyclohexyl trans-4-hydroxycyclohexanecarboxylate]"
12,≤ 250,"COc1ccc([C@H]2CC[C@H](CN(c3cccc(-c4cnn(C(C)C)c4)c3)C(=O)[C@H]3CC[C@H](NC(=O)OC(C)(C)C)CC3)CC2)cc1C [Compound 18.16, tert-Butyl (trans-4-((3-(1-isopropyl-1H-pyrazol-4-yl)phenyl)((trans-4-(4-methoxy-3-methylphenyl)cyclohexyl)methyl)carbamoyl)cyclohexyl) carbamate]"
13,≤ 250,"COc1ccc([C@H]2CC[C@H](CN(c3cccc(-c4cnn(C5CC5)c4)c3)C(=O)[C@H]3CC[C@H](OC(=O)NCCCO)CC3)CC2)cc1C [Compound 4.10, trans-4-((3-(1-Cyclopropyl-1H-pyrazol-4-yl)phenyl)((trans-4-(4-methoxy-3-methylphenyl)cyclohexyl)methyl)carbamoyl)cyclohexyl (3-hydroxypropyl)carbamate]"
14,≤ 250,"COC(=O)NCCNC(=O)O[C@H]1CC[C@H](C(=O)N(C[C@H]2CC[C@H](c3ccc(OC)c(C)c3)CC2)c2cccc(-c3cnn(C4CC4)c3)c2)CC1 [Compound 26.25, trans-4-((3-(1-Cyclopropyl-1H-pyrazol-4-yl)phenyl)((trans-4-(4-methoxy-3-methylphenyl)cyclohexyl)methyl)carbamoyl)cyclohexyl methyl ethane-1,2-diyldicarbamate]"
15,≤ 250,"CN(C)c1ccc([C@H]2CC[C@H](CN(c3cccc(-c4cnn(C5CC5)c4)c3)C(=O)[C@H]3CC[C@H](CC(=O)O)CC3)CC2)cn1 [Compound 20.12, 2-(trans-4-((3-(1-Cyclopropyl-1H-pyrazol-4-yl)phenyl)((trans-4-(6-(dimethylamino)pyridin-3-yl)cyclohexyl)methyl)carbamoyl)cyclohexyl)acetic acid]"
16,250 to 1000,"COc1ccc([C@H]2CC[C@H](CN(c3cc(-c4cnn(C5CC5)c4)ccn3)C(=O)[C@H]3CC[C@H](CC(=O)O)CC3)CC2)nc1C [Compound 17.23, 2-(trans-4-((4-(1-Cyclopropyl-1H-pyrazol-4-yl)pyridin-2-yl)((trans-4-(5-methoxy-6-methylpyridin-2-yl)cyclohexyl)methyl)carbamoyl)cyclohexyl)acetic acid]"
17,≤ 250,"CCc1nc(-c2ccnc(N(C[C@H]3CC[C@H](c4ccc(OC)c(C)n4)CC3)C(=O)[C@H]3CC[C@H](OC(=O)NC)CC3)c2)co1 [Compound 5.51, trans-4-((4-(2-Ethyloxazol-4-yl)pyridin-2-yl)((trans-4-(5-methoxy-6-methylpyridin-2-yl)cyclohexyl)methyl)carbamoyl)cyclohexyl methylcarbamate]"
